Results published in patent US9777002B2, “Inhibitors of the renal outer medullary potassium channel” (Merck Sharp & Dohme Corp., priority 2012, dated 2017).

target: T1, hROMK (hKir1.1) (Homo sapiens, UniProt P48048); experiment: Thallium Flux Assay; type: cell-based; conditions: HEK293 cells stably expressing hROMK (hKir1.1)
T1 construct: expressed in transfected cells
T1 sequence (P48048 1-391): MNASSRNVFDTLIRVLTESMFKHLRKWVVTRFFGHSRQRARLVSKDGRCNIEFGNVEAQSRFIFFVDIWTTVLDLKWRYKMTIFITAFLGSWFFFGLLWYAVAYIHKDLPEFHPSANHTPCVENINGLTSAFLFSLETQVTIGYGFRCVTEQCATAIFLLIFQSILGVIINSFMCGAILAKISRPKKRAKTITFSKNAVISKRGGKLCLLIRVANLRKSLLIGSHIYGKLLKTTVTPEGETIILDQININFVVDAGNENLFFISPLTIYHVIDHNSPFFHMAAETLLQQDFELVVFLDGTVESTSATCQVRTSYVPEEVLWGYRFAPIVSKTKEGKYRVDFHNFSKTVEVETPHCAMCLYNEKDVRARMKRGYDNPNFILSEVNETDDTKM
Description: Cell Culture Conditions—HEK293 cells stably expressing hROMK (hKir1.1) were grown at 37° C. in a 10% CO2 humidified incubator in complete growth media: Dulbecco's Modified Eagle Medium supplemented with non-essential amino acids, Penicillin/Streptomycin/Glutamine, G418 and FBS. At >80% confluency, aspirate the media from the flask and rinse with 10 mL Calcium/Magnesium-free PBS. Add 5 mL of 1× trypsin (prepared in Ca/Mg Free PBS) to T-225 flask and return flask to 37° C./CO2 incubator for 2-3 minutes. To dislodge the cell, gently bang the side of the flask with your hand. Triturate the cells completely and then transfer the cells to 25 mL complete media. Centrifuge at 1,500 rpm for 6 min followed by resuspension in complete growth media and determine cell concentration. For typical re-seeding, 4E6 cells/T-225 flask will attain >80% confluency in 4 days. Under ideal growth conditions and appropriate tissue culture practices, this cell line is stable for 40-45 passages.
FluxOR Kit Components (Invitrogen F10017)
• FluxOR™ Reagent (Component A) • FluxOR™ Assay Buffer (Component B)—10× Concentrate • PowerLoad™ Concentrate (Component C)—100× Concentrate • Probenecid (Component D)—Lyophilized sample is kept at −20° C. Water soluble, 100× after solubilization in 1 mL water. Store at 4° C. • FluxOR™ Chloride-free Buffer (Component E)—5× Concentrate • Potassium sulfate (K2SO4) Concentrate (Component F)—125 mM in water. Store at 4° C. • Thallium sulfate (Tl2SO4) Concentrate (Component G)—50 mM in water. Store at 4° C. • DMSO (dimethyl sulfoxide, Component H)—1 mL (100%) Reagent Preparation: FluxOR Working Solutions • 1000× FluxOR™ Reagent: Reconstitute a vial of component A in 100 μl DMSO; Mix well; Store 10 μl aliquots at −20° C. • 1× FluxOR™ Assay Buffer: Dilute Component B 10-fold with water; Adjust pH to 7.4 with Hepes/NaOH; Filter and store at 4° C. • Probenecid/Assay Buffer: 100 mL of 1× FluxOR™ Assay Buffer; 1 mL of reconstituted component D; Store at 4° C. • Loading Buffer (per microplate): 10 μl 1000× FluxOR™ Reagent; 100 μl component C; 10 mL Probenecid/Assay Buffer • Compound Buffer (per microplate): 20 mL Probenecid/Assay Buffer; 0.3 mM ouabain (10 mM ouabain in water can be stored in amber bottle/aluminum foil at room temperature); Test compound • 1× FluxOR™ Chloride-Free Buffer: Prepare 1× working solution in water. Can be stored at room temperature • Stimulant Buffer (prepared at 5× final concentration in 1× FluxOR™Chloride-Free Buffer): 7.5 mM Thallium sulfate and 0.75 mM Potassium sulfate (to give a final assay concentration of 3 mM Thallium/0.3 mM Potassium). Store at 4° C. when not in use. If kept sterile, this solution is good for months.
Assay Protocol—The ROMK channel functional thallium flux assay is performed in 384 wells, using the FLIPR-Tetra instrument. HEK-hKir1.1 cells are seeded in Poly-D-Lysine microplates and kept in a 37° C.-10% CO2 incubator overnight. On the day of the experiment, the growth media is replaced with the FluxOR™ reagent loading buffer and incubated, protected from light, at ambient temperature (23-25° C.) for 90 min. The loading buffer is replaced with assay buffer± test compound followed by 30 min incubation at ambient temperature, where the Thallium/Potassium stimulant is added to the microplate.
• 1. Seed HEK-hKir1.1 cells (50 μl at 20,000 cells/well) in 384-well PDL coated Microplates • 2. Allow cells to adhere overnight in humidified 37° C./10% CO2 incubator • 3. Completely remove cell growth media from microplate and replace with 25 μl loading buffer • 4. Incubate Microplate at room temperature, protected form light, for 90 min • 5. Remove loading buffer and replace with 25 μl 1× Assay Buffer±test compound. • 6. Incubate microplate at room temperature, protected from light, for 30 min • 7. At FLIPR-Tetra 384: Add stimulant (Thallium/Potassium) solution to microplate and monitor fluorescence. Excitation=400 nm, Emission=460 & 580 nm. Collect data for ˜10 min. […]

Question: With Cc1c([C@@H](O)CN2CCC(NC(=O)c3ccc(C#N)nc3)CC2)ccc2c1COC2=O [Example 24, (R)-6-Cyano-N-(1-(2-hydroxy-2-(4-methyl-1-oxo-1,3-dihydroisobenzofuran-5-yl)ethyl)piperidin-4-yl)nicotinamide] as the compound, how does the IC50 read?
Answer: 150 nM

Question: Which IC50 does the source give for Cc1c([C@@H](O)CN2CCC(N3Cc4cc(-n5cnnn5)ccc4C3=O)CC2)ccc2c1COC2=O [Example 91, (R)-2-(1-(2-Hydroxy-2-(4-methyl-1-oxo-1,3-dihydroisobenzofuran-5-yl)ethyl)piperidin-4-yl)-5-(1H-tetrazol-1-yl)isoindolin-1-one] here?
Answer: 130 nM

Question: For COc1cc(F)c(C#N)cc1C(=O)NC1CCN(C[C@@H](O)c2ccc3c(c2C)COC3=O)CC1 [Example 21, (S)-5-Cyano-4-fluoro-N-(1-(2-hydroxy-2-(4-methyl-1-oxo-1,3-dihydroisobenzofuran-5-yl)ethyl)piperidin-4-yl)-2-methoxybenzamide], which IC50 is on record?
Answer: 150 nM

Question: How did the IC50 turn out when Cc1c([C@@H](O)CN2CCC(NC(=O)c3ccc(-c4cc[nH]n4)cc3)CC2)ccc2c1COC2=O [Example 39, (R)-N-(1-(2-Hydroxy-2-(4-methyl-1-oxo-1,3-dihydroisobenzofuran-5-yl)ethyl)piperidin-4-yl)-4-(1H-pyrazol-3-yl)benzamide] was run?
Answer: 310 nM

Question: With Cc1c([C@@H](O)CN2CC[C@H](NC(=O)c3ccc(-n4cnnn4)cn3)[C@H](F)C2)ccc2c1COC2=O (single isomer, unassigned) [58 B] as the compound, how does the IC50 read?
Answer: 870 nM

Question: With Cc1nc(C(=O)NC2CCN(C[C@H](O)c3ccc4c(c3C)COC4=O)CC2)ccc1C#N [Example 41, (R)-5-Cyano-N-(1-(2-hydroxy-2-(4-methyl-1-oxo-1,3-dihydroisobenzofuran-5-yl)ethyl)piperidin-4-yl)-6-methylpicolinamide] as the compound, how does the IC50 read?
Answer: 70 nM

Question: With Cc1c([C@@H](O)CN2CCC(NC(=O)c3ccc(-n4cnnn4)cc3)CC2)ccc2c1COC2=O [Example 34, (R)-N-(1-(2-Hydroxy-2-(4-methyl-1-oxo-1,3-dihydroisobenzofuran-5-yl)ethyl)piperidin-4-yl)-4-(1H-tetrazol-1-yl)benzamide] as the compound, how does the IC50 read?
Answer: 230 nM

Question: With Cc1c([C@@H](O)CN2CCC(C)(NC(=O)c3ccc(-n4cnnn4)nn3)CC2)ccc2c1COC2=O [Example 71, (R)-N-(1-(2-Hydroxy-2-(4-methyl-1-oxo-1,3-dihydroisobenzofuran-5-yl)ethyl)-4-methylpiperidin-4-yl)-6-(1H-tetrazol-1-yl)pyridazine-3-carboxamide] as the compound, how does the IC50 read?
Answer: 280 nM

Question: For Cc1c(CCN2CCC(NC(=O)c3cc(C#N)cs3)CC2)ccc2c1COC2=O [Example 32, 4-Cyano-N-(1-(2-(4-methyl-1-oxo-1,3-dihydroisobenzofuran-5-yl)ethyl)piperidin-4-yl)thiophene-2-carboxamide], which IC50 is on record?
Answer: 480 nM

Question: How did the IC50 turn out when Cc1c([C@@H](O)CN2CCCC(C)(CNC(=O)c3ccc(-n4cnnn4)nc3)C2)ccc2c1COC2=O (stereo partly drawn) [Example 83, N-((1-((R)-2-Hydroxy-2-(4-methyl-1-oxo-1,3-dihydroisobenzofuran-5-yl)ethyl)-3-methylpiperidin-3-yl)methyl)-6-(1H-tetrazol-1-yl)nicotinamide] was run?
Answer: 720 nM

Question: With Cc1c([C@@H](O)CN2CCC(CNC(=O)c3ccc(-n4cnnn4)cn3)C2)ccc2c1COC2=O (stereo partly drawn) [Example 86, N-((1-((R)-2-Hydroxy-2-(4-methyl-1-oxo-1,3-dihydroisobenzofuran-5-yl)ethyl)pyrrolidin-3-yl)methyl)-5-(1H-tetrazol-1-yl)picolinamide] as the compound, how does the IC50 read?
Answer: 980 nM

Question: How did the IC50 turn out when Cc1c([C@@H](O)CN2CCC(NC(=O)c3ccc(C#N)cc3)CC2)ccc2c1COC2=O [Example 27, (R)-4-Cyano-N-(1-(2-hydroxy-2-(4-methyl-1-oxo-1,3-dihydroisobenzofuran-5-yl)ethyl)piperidin-4-yl)benzamide] was run?
Answer: 30 nM

Question: How did the IC50 turn out when Cc1c(C(O)CN2CCC(NC(=O)c3ccc(C#N)c(F)c3)CC2)ccc2c1COC2=O (stereo not drawn) [Example 16, 4-Cyano-3-fluoro-N-(1-(2-hydroxy-2-(4-methyl-1-oxo-1,3-dihydroisobenzofuran-5-yl)ethyl)piperidin-4-yl)benzamide] was run?
Answer: 50 nM

Question: With Cc1c(CCN2CCC(NC(=O)c3ccc4nonc4c3)CC2)ccc2c1COC2=O [Example 8, N-(1-(2-(4-Methyl-1-oxo-1,3-dihydroisobenzofuran-5-yl)ethyl)piperidin-4-yl)benzo[c][1,2,5]oxadiazole-5-carboxamide] as the compound, how does the IC50 read?
Answer: 460 nM

Question: Cc1c([C@@H](O)CN2CC3C(C2)C3NC(=O)c2ccc(C#N)cn2)ccc2c1COC2=O (stereo partly drawn) [Example 33, 5-Cyano-N-(3-((R)-2-hydroxy-2-(4-methyl-1-oxo-1,3-dihydroisobenzofuran-5-yl)ethyl)-3-azabicyclo[3.1.0]hexan-6-yl)picolinamide] was tested. Which IC50 did it give?
Answer: 60 nM

Question: COc1cc(C(=O)NC2CCN(CC(O)c3ccc4c(c3C)COC4=O)CC2)ccc1C#N (stereo not drawn) [Example 7, 4-Cyano-N-(1-(2-hydroxy-2-(4-methyl-1-oxo-1,3-dihydroisobenzofuran-5-yl)ethyl)piperidin-4-yl)-3-methoxybenzamide] was tested. Which IC50 did it give?
Answer: 10 nM

Question: With Cc1c([C@@H](O)CN2CCC(NC(=O)c3ccc(-n4cncn4)cc3)CC2)ccc2c1COC2=O [Example 74, (R)-N-(1-(2-Hydroxy-2-(4-methyl-1-oxo-1,3-dihydroisobenzofuran-5-yl)ethyl)piperidin-4-yl)-4-(1H-1,2,4-triazol-1-yl)benzamide] as the compound, how does the IC50 read?
Answer: 630 nM

Question: With Cc1c(CCN2CCC(NC(=O)c3ccc(-n4cnnn4)nc3)CC2)ccc2c1COC2=O [Example 3, N-(1-(2-(4-Methyl-1-oxo-1,3-dihydroisobenzofuran-5-yl)ethyl)piperidin-4-yl)-6-(1H-tetrazol-1-yl)nicotinamide] as the compound, how does the IC50 read?
Answer: 500 nM

Question: Which IC50 does the source give for Cc1c([C@@H](O)CN2CCC(NC(=O)c3ccc(C#N)cc3F)CC2)ccc2c1COC2=O [Example 45, (R)-4-Cyano-2-fluoro-N-(1-(2-hydroxy-2-(4-methyl-1-oxo-1,3-dihydroisobenzofuran-5-yl)ethyl)piperidin-4-yl)benzamide] here?
Answer: 450 nM

Question: For Cc1cc(C(=O)NCC2CCN(C[C@H](O)c3ccc4c(c3C)COC4=O)C2)ncc1-n1cnnn1 (stereo partly drawn) [Example 85, N-((1-((R)-2-Hydroxy-2-(4-methyl-1-oxo-1,3-dihydroisobenzofuran-5-yl)ethyl)pyrrolidin-3-yl)methyl)-4-methyl-5-(1H-tetrazol-1-yl)picolinamide], which IC50 is on record?
Answer: 370 nM

Question: How did the IC50 turn out when Cc1c([C@@H](O)CN2CC[C@@H](NC(=O)c3ccc(-n4cnnn4)cn3)C2)ccc2c1COC2=O [Example 62, N-((R)-1-((R)-2-Hydroxy-2-(4-methyl-1-oxo-1,3-dihydroisobenzofuran-5-yl)ethyl)pyrrolidin-3-yl)-5-(1H-tetrazol-1-yl)picolinamide] was run?
Answer: 370 nM
